According to patent US12594346B2, “Crosslinked hydrogel for immune checkpoint blockade delivery” (GEORGIA TECH RESEARCH CORPORATION, priority 2020, dated 2026):

Assay: Biotin-4-fluorescein (B4F) competition assay, binding affinity of chimeric proteins
Settings: room temperature

binding behavior to biotin-4-fluorescein (fluorescence intensity, binding curve fits): equivalent binding behavior
Substance: commercial streptavidin: streptavidin (MP Biomedicals) [reference compound]
